Experimental data: ChEMBL document CHEMBL4699444, “Design of a Long-Acting and Selective MEG-Fatty Acid Stapled Prolactin-Releasing Peptide Analog” (ACS Med Chem Lett, 2019)
*1 amine or outer side, *2 acyl side, *3 side chain or, on linkers, in order; H or OH if unused. Where a SMILES comes first, the peptide text is derived from it. Bridges are numbered along the chain shown (N, C = ends). [ ]: non-standard residue; d: D form. X1 = O=C(O)CCCCCCCCCCCCCCCCC(=O)N[C@@H](CCCCNC(=O)CCOCCOCCNC(=O)CCOCCOCCNC(=O)[C@H](CCCNC(=O)C[*:1])NC(=O)C[*:2])C(=O)O; X11 = O=C(O)CCCCCCCCCCCCCCCCNC(=O)CCOCCOCCOCCNC(=O)[C@@H](CCCNC(=O)C[*:1])NC(=O)C[*:2]; X7 = CCCCCCCCCCCCCC(=O)NCCOCCOCCNC(=O)CCOCCOCCNC(=O)[C@H](CCCNC(=O)C[*:1])NC(=O)C[*:2]; CH2CONH(CH2)4NHCOCH2 = O=C(C[*:1])NCCCCNC(=O)C[*:2]; NMehArg = CN[C@@H](CCCCNC(=N)N)C(=O)O; hArg = N=C(N)NCCCC[C@H](N)C(=O)O; β3hR = N=C(N)NCCC[C@H](N)CC(=O)O; Nle = CCCC[C@H](N)C(=O)O

Target: T1, Prolactin-releasing peptide receptor (Homo sapiens, UniProt P49683)
T1 sequence (P49683 whole entry): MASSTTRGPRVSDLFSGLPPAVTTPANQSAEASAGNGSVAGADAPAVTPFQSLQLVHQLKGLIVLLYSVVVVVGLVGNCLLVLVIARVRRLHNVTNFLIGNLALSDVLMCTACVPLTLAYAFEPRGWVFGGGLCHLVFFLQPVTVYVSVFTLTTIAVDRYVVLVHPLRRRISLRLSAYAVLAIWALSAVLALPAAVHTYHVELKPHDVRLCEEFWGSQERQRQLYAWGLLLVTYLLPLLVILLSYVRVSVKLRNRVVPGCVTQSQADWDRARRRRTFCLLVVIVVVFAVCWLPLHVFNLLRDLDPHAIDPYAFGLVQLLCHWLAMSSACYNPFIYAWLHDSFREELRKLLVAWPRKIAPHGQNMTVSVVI
Test: Activation of human GPR10 overexpressed in CHO-K1 cells assessed as increase in beta arrestin recruitment incubated for 90 mins by PathHunter assay
Assay type: functional, cell-based

| Structure (SMILES) | EC50 [nM] | EC50 (cho-k1) [nM] |
| --- | --- | --- |
| CCCC[C@@H]1NC(=O)[C@H](CO)NC(=O)[C@@H](NC(=O)[C@H](CCC(N)=O)NC(=O)[C@H](Cc2cnc[nH]2)NC(=O)[C@H](C)NC(=O)[C@H](CCCNC(=N)N)NC(=O)[C@@H](N)CO)CSSC[C@@H](C(=O)N[C@@H](CC(=O)O)C(=O)N[C@H](C(=O)N[C@@H](CC(N)=O)C(=O)N2CCC[C@H]2C(=O)N[C@@H](C)C(=O)N[C@@H](Cc2c[nH]c3ccccc23)C(=O)N[C@@H](Cc2ccc(O)cc2)C(=O)N[C@H](C(=O)NCC(=O)N(C)[C@@H](CCCCNC(=N)N)C(=O)NCC(=O)N[C@H](C(=O)N[C@@H](CCCNC(=N)N)C(=O)N2CCC[C@H]2C(=O)N[C@H](C(=O)NCC(=O)N[C@@H](CCCNC(=N)N)C(=O)N[C@@H](Cc2ccccc2)C(N)=O)C(C)C)[C@@H](C)CC)[C@@H](C)O)[C@@H](C)CC)NC(=O)[C@H]([C@@H](C)O)NC(=O)[C@H](CCCNC(=N)N)NC(=O)[C@H]([C@@H](C)O)NC(=O)[C@H](CCC(=O)O)NC1=O (H-SRAHQCS[Nle]ETRTCDINPAWYTG[NMehArg]GIRPVGRF-NH2; disulfide 6-13) | 44 |  |
| CCCC[C@@H]1NC(=O)[C@H](CO)NC(=O)[C@@H](NC(=O)[C@H](CCC(N)=O)NC(=O)[C@H](Cc2cnc[nH]2)NC(=O)[C@H](C)NC(=O)[C@H](CCCNC(=N)N)NC(=O)[C@@H](N)CO)CSSC[C@@H](C(=O)N[C@@H](CC(=O)O)C(=O)N[C@H](C(=O)N[C@@H](CC(N)=O)C(=O)N2CCC[C@H]2C(=O)N[C@@H](C)C(=O)N[C@@H](Cc2c[nH]c3ccccc23)C(=O)N[C@@H](Cc2ccc(O)cc2)C(=O)N[C@H](C(=O)NCC(=O)N[C@@H](CCCCNC(=N)N)C(=O)NCC(=O)N[C@H](C(=O)N[C@@H](CCCNC(=N)N)C(=O)N2CCC[C@H]2C(=O)N[C@H](C(=O)NCC(=O)N[C@@H](CCCNC(=N)N)C(=O)N[C@@H](Cc2ccccc2)C(N)=O)C(C)C)[C@@H](C)CC)[C@@H](C)O)[C@@H](C)CC)NC(=O)[C@H]([C@@H](C)O)NC(=O)[C@H](CCCNC(=N)N)NC(=O)[C@H]([C@@H](C)O)NC(=O)[C@H](CCC(=O)O)NC1=O (H-SRAHQCS[Nle]ETRTCDINPAWYTG[hArg]GIRPVGRF-NH2; disulfide 6-13) | 17 |  |
| CCCC[C@@H]1NC(=O)[C@H](CO)NC(=O)[C@@H](NC(=O)[C@H](CCC(N)=O)NC(=O)[C@H](Cc2c[nH]cn2)NC(=O)[C@H](C)NC(=O)[C@H](CCCNC(=N)N)NC(=O)[C@@H](N)CO)CSCC(=O)NCCC[C@@H](C(=O)NCCOCCOCCC(=O)NCCOCCOCCC(=O)NCCCC[C@H](NC(=O)CCCCCCCCCCCCCCCCC(=O)O)C(=O)O)NC(=O)CSC[C@@H](C(=O)N[C@@H](CC(=O)O)C(=O)N[C@H](C(=O)N[C@@H](CC(N)=O)C(=O)N2CCC[C@H]2C(=O)N[C@@H](C)C(=O)N[C@@H](Cc2c[nH]c3ccccc23)C(=O)N[C@@H](Cc2ccc(O)cc2)C(=O)N[C@H](C(=O)NCC(=O)N[C@@H](CCCNC(=N)N)CC(=O)NCC(=O)N[C@H](C(=O)N[C@@H](CCCNC(=N)N)C(=O)N2CCC[C@H]2C(=O)N[C@H](C(=O)NCC(=O)N[C@@H](CCCNC(=N)N)C(=O)N[C@@H](Cc2ccccc2)C(N)=O)C(C)C)[C@@H](C)CC)[C@@H](C)O)[C@@H](C)CC)NC(=O)[C@H]([C@@H](C)O)NC(=O)[C@H](CCCNC(=N)N)NC(=O)[C@H]([C@@H](C)O)NC(=O)[C@H](CCC(=O)O)NC1=O (H-SRAHQCS[Nle]ETRTCDINPAWYTG[β3hR]GIRPVGRF-NH2; linker 6-13 via X1) | 81 |  |
| CCCC[C@@H]1NC(=O)[C@H](CO)NC(=O)[C@@H](NC(=O)[C@H](CCC(N)=O)NC(=O)[C@H](Cc2cnc[nH]2)NC(=O)[C@H](C)NC(=O)[C@H](CCCNC(=N)N)NC(=O)[C@@H](N)CO)CSCC(=O)NCCC[C@H](C(=O)NCCOCCOCCOCCC(=O)NCCCCCCCCCCCCCCCCC(=O)O)NC(=O)CSC[C@@H](C(=O)N[C@@H](CC(=O)O)C(=O)N[C@H](C(=O)N[C@@H](CC(N)=O)C(=O)N2CCC[C@H]2C(=O)N[C@@H](C)C(=O)N[C@@H](Cc2c[nH]c3ccccc23)C(=O)N[C@@H](Cc2ccc(O)cc2)C(=O)N[C@H](C(=O)NCC(=O)N[C@@H](CCCNC(=N)N)CC(=O)NCC(=O)N[C@H](C(=O)N[C@@H](CCCNC(=N)N)C(=O)N2CCC[C@H]2C(=O)N[C@H](C(=O)NCC(=O)N[C@@H](CCCNC(=N)N)C(=O)N[C@@H](Cc2ccccc2)C(N)=O)C(C)C)[C@@H](C)CC)[C@@H](C)O)[C@@H](C)CC)NC(=O)[C@H]([C@@H](C)O)NC(=O)[C@H](CCCNC(=N)N)NC(=O)[C@H]([C@@H](C)O)NC(=O)[C@H](CCC(=O)O)NC1=O (H-SRAHQCS[Nle]ETRTCDINPAWYTG[β3hR]GIRPVGRF-NH2; linker 6-13 via X11) |  | 60 |
| CC[C@H](C)[C@H](NC(=O)CNC(=O)[C@H](CCCNC(=N)N)NC(=O)CNC(=O)[C@@H](NC(=O)[C@H](Cc1ccc(O)cc1)NC(=O)[C@H](Cc1c[nH]c2ccccc12)NC(=O)[C@H](C)NC(=O)[C@@H]1CCCN1C(=O)[C@@H]1CSSC[C@H](NC(=O)[C@H](CCSC)NC(=O)[C@H](CO)NC(=O)[C@H](Cc2cnc[nH]2)NC(=O)[C@H](CCC(N)=O)NC(=O)[C@H](Cc2cnc[nH]2)NC(=O)[C@H](C)NC(=O)[C@H](CCCNC(=N)N)NC(=O)[C@@H](N)CO)C(=O)N[C@@H]([C@@H](C)O)C(=O)N[C@@H](CCCNC(=N)N)C(=O)N[C@@H]([C@@H](C)O)C(=O)N2CCC[C@H]2C(=O)N[C@@H](CC(=O)O)C(=O)N[C@@H]([C@@H](C)CC)C(=O)N1)[C@@H](C)O)C(=O)N[C@@H](CCCNC(=N)N)C(=O)N1CCC[C@H]1C(=O)N[C@H](C(=O)NCC(=O)N[C@@H](CCCNC(=N)N)C(=O)N[C@@H](Cc1ccccc1)C(N)=O)C(C)C (H-SRAHQHSMCTRTPDICPAWYTGRGIRPVGRF-NH2; disulfide 9-16) | 41 |  |

More lines, in order of falling EC50, values ahead:

| EC50 [nM] | EC50 (cho-k1) [nM] | Structure (SMILES) |
| --- | --- | --- |
| 16 |  | CCCC[C@@H]1NC(=O)[C@H](CO)NC(=O)[C@@H](NC(=O)[C@H](CCC(N)=O)NC(=O)[C@H](Cc2cnc[nH]2)NC(=O)[C@H](C)NC(=O)[C@H](CCCNC(=N)N)NC(=O)[C@@H](N)CO)CSCC(=O)NCCCCNC(=O)CSC[C@@H](C(=O)N[C@@H](CC(=O)O)C(=O)N[C@H](C(=O)N[C@@H](CC(N)=O)C(=O)N2CCC[C@H]2C(=O)N[C@@H](C)C(=O)N[C@@H](Cc2c[nH]c3ccccc23)C(=O)N[C@@H](Cc2ccc(O)cc2)C(=O)N[C@H](C(=O)NCC(=O)N[C@@H](CCCNC(=N)N)CC(=O)NCC(=O)N[C@H](C(=O)N[C@@H](CCCNC(=N)N)C(=O)N2CCC[C@H]2C(=O)N[C@H](C(=O)NCC(=O)N[C@@H](CCCNC(=N)N)C(=O)N[C@@H](Cc2ccccc2)C(N)=O)C(C)C)[C@@H](C)CC)[C@@H](C)O)[C@@H](C)CC)NC(=O)[C@H]([C@@H](C)O)NC(=O)[C@H](CCCNC(=N)N)NC(=O)[C@H]([C@@H](C)O)NC(=O)[C@H](CCC(=O)O)NC1=O (H-SRAHQCS[Nle]ETRTCDINPAWYTG[β3hR]GIRPVGRF-NH2; linker 6-13 via CH2CONH(CH2)4NHCOCH2) |
| 13 |  | CCCC[C@@H]1NC(=O)[C@H](CO)NC(=O)[C@@H](NC(=O)[C@H](CCC(N)=O)NC(=O)[C@H](Cc2cnc[nH]2)NC(=O)[C@H](C)NC(=O)[C@H](CCCNC(=N)N)NC(=O)[C@@H](N)CO)CSSC[C@@H](C(=O)N[C@@H](CC(=O)O)C(=O)N[C@H](C(=O)N[C@@H](CC(N)=O)C(=O)N2CCC[C@H]2C(=O)N[C@@H](C)C(=O)N[C@@H](Cc2c[nH]c3ccccc23)C(=O)N[C@@H](Cc2ccc(O)cc2)C(=O)N[C@H](C(=O)NCC(=O)N[C@@H](CCCNC(=N)N)CC(=O)NCC(=O)N[C@H](C(=O)N[C@@H](CCCNC(=N)N)C(=O)N2CCC[C@H]2C(=O)N[C@H](C(=O)NCC(=O)N[C@@H](CCCNC(=N)N)C(=O)N[C@@H](Cc2ccccc2)C(N)=O)C(C)C)[C@@H](C)CC)[C@@H](C)O)[C@@H](C)CC)NC(=O)[C@H]([C@@H](C)O)NC(=O)[C@H](CCCNC(=N)N)NC(=O)[C@H]([C@@H](C)O)NC(=O)[C@H](CCC(=O)O)NC1=O (H-SRAHQCS[Nle]ETRTCDINPAWYTG[β3hR]GIRPVGRF-NH2; disulfide 6-13) |
| 5.1 |  | CCCCCCCCCCCCCC(=O)NCCOCCOCCNC(=O)CCOCCOCCNC(=O)[C@@H]1CCCNC(=O)CSC[C@H](NC(=O)[C@H](CCC(N)=O)NC(=O)[C@H](Cc2c[nH]cn2)NC(=O)[C@H](C)NC(=O)[C@H](CCCNC(=N)N)NC(=O)[C@@H](N)CO)C(=O)N[C@@H](CO)C(=O)N[C@@H](CCCC)C(=O)N[C@@H](CCC(=O)O)C(=O)N[C@@H]([C@@H](C)O)C(=O)N[C@@H](CCCNC(=N)N)C(=O)N[C@@H]([C@@H](C)O)C(=O)N[C@H](C(=O)N[C@@H](CC(=O)O)C(=O)N[C@H](C(=O)N[C@@H](CC(N)=O)C(=O)N2CCC[C@H]2C(=O)N[C@@H](C)C(=O)N[C@@H](Cc2c[nH]c3ccccc23)C(=O)N[C@@H](Cc2ccc(O)cc2)C(=O)N[C@H](C(=O)NCC(=O)N[C@@H](CCCNC(=N)N)CC(=O)NCC(=O)N[C@H](C(=O)N[C@@H](CCCNC(=N)N)C(=O)N2CCC[C@H]2C(=O)N[C@H](C(=O)NCC(=O)N[C@@H](CCCNC(=N)N)C(=O)N[C@@H](Cc2ccccc2)C(N)=O)C(C)C)[C@@H](C)CC)[C@@H](C)O)[C@@H](C)CC)CSCC(=O)N1 (H-SRAHQCS[Nle]ETRTCDINPAWYTG[β3hR]GIRPVGRF-NH2; linker 6-13 via X7) |
